Where “and” joins values, the source holds several entries; their conditions need not be identical. Equal entries are not always repeated. Where two headings read alike, the source gives them in different places.
Experiments:
Format in all cases: biochemical
[1] = target: T1, PIN8 S55A/S146A (Arabidopsis thaliana, UniProt Q9LFP6, S146A/S55A); details: Michaelis–Menten fit
T1 construct: made in house
Protocol: (§1) SSM, using a SURFE2R N1 from Nanion Technologies, was conducted as described. In brief, soy polar lipid mix (38% phosphatidyl choline, 30% phosphatidyl ethanolamine, 18% phosphatidyl inositol, 7% phosphatidic acid and 7% other soy lipids) and 1-palmitoyl-2-oleoyl-sn-glycero-3-phosphocholin were purchased from Avanti. Liposomes were prepared in Ringer solution without Ca^2+ (115 mM NaCl, 2.5 mM KCl, 1 mM NaHCO3, 10 mM HEPES pH7.4, 1 mM MgCl2) and homogenized using a Lipsofast (Avestin) with a […]. Triton X-100 was added to the liposomes to a final concentration of 1% (v/v). Protein was added to liposomes to a calculated lipid-to-protein ratio (LPR) of 10 unless stated otherwise. The detergent was removed using 400 mg ml^−1 Bio Beads (BioRad) overnight at 4 °C in a rotary shaker. Proteoliposomes were frozen in liquid nitrogen and kept at −80 °C until use. Proteoliposomes were diluted 1:5 in Ringer solution without Ca^2+, sonicated five times and then applied to the sensors by centrifugation (30 min, 3,000 g, 4 °C). Non-activating buffer was Ringer solution without Ca^2+ as described unless specified otherwise, and activating buffer contained the substrate of interest. In most instances we used a single-solution exchange experiment. In this case proteoliposomes, immobilized on the supported membrane, are kept in non-activating buffer as specified. At the beginning of the experiment the non-activating buffer is replaced with fresh identical non-activating buffer, and after 1 s, activating buffer (same buffer containing substrate) is added. After another second, the buffer is replaced with non-activating buffer again. Current response is recorded throughout the entire 3 s. For competition or inhibition, the respective compound was present in non-activating and activating solutions. Each experiment was performed on at least two individual sensors. On each sensor each measurement consists of three technical replicates where the mean is calculated. KD values were determined as described previously. Briefly, the binding current induced by 100 µM NPA was recorded in the presence of different concentrations of the substrate under investigation ranging between 0 µM and 1,000 µM present in the activating solution and the non-activating solution (Extended Data Fig. 5b). […] The maximum peak current was then plotted as a function of the concentration of the substrate under investigation and plotted against the degree of inhibition and fitted with a one-site binding model using GraphPad Prism V10.4.1 The half maximal concentration corresponds to the KD of the substrate under investigation.
(§2) The protocol for expression and purification of AtPIN8 protein (Uniprot: Q9LFP6) in lauryl maltose neopentyl glycol was described previously. All point mutants were generated using Q5 Site-Directed mutagenesis kit (New England Biolabs). The C-flat Holey Carbon grids (CF-1.2/1.3, Cu-300 mesh) were glow-discharged for 45 s at 15 mA in a GloQube Plus (Quorum). […] After 1 h of incubation on ice, the sample was centrifuged at 16,000 g for 15 min before blotting to remove precipitation. A drop of 4 µl of each sample was applied to the glow-discharged grids, blotted with a Vitrobot Mark IV (ThermoFisher Scientific) using the following settings (temperature 4 °C, 100% humidity, blot time of 4 s, blot force −1) and vitrified in liquid ethane.

[2] = target: T2, PIN8 I51Y (Arabidopsis thaliana, UniProt Q9LFP6, I51Y); details: Michaelis–Menten fit
T2 construct: made in house
Protocol: as §1, §2

[3] = target: T3, PIN8 Y150A (Arabidopsis thaliana, UniProt Q9LFP6, Y150A); details: for Peak current: Y150A, individual sensors
T3 construct: made in house
Protocol: as §1, §2

[4] = target: T4, PIN8 S146A (Arabidopsis thaliana, UniProt Q9LFP6, S146A); details: for Peak current: S146A, individual sensors
T4 construct: made in house
Protocol: as §1, §2

[5] = target: T5, PIN8 N223A (Arabidopsis thaliana, UniProt Q9LFP6, N223A); details: N223A
T5 construct: made in house
Protocol: as §1, §2

[6] = target: T6, PIN8 Y150F (Arabidopsis thaliana, UniProt Q9LFP6, Y150F); details: PIN8 Y150F, Michaelis–Menten fit
T6 construct: made in house
Protocol: as §1, §2

[7] = target: T7, PIN8 N117A (Arabidopsis thaliana, UniProt Q9LFP6, N117A); assay: SSM electrophysiology peak current, PIN8 N117A proteoliposomes; details: for Relative Peak Current of WT (%): Substrate 4-CPA, replicates
T7 construct: made in house
Protocol: as §1, §2

[8] = target: T8, A. thaliana PIN8 (Arabidopsis thaliana, UniProt Q9LFP6); assay: SSM electrophysiology, peak current response on PIN8 proteoliposomes; details: for Peak current: individual sensors
T8 construct: made in house
T8 sequence (Q9LFP6 1-367): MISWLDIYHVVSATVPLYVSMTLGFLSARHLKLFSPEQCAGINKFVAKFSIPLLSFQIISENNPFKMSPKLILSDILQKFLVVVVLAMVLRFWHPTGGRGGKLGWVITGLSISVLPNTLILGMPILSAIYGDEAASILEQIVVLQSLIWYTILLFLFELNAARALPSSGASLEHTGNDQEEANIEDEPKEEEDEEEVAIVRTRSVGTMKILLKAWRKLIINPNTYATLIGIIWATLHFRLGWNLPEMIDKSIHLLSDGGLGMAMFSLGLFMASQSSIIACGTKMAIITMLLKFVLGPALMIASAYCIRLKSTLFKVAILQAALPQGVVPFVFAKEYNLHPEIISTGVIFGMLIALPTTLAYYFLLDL
Protocol: as §1

[9] = target: T9, wild-type PIN8 proteoliposomes (Arabidopsis thaliana, UniProt Q9LFP6); assay: SSM electrophysiology, peak width (FWHM) of current response at LPR10 and LPR50; details: for Rel. FWHM (% of LPR10): replicates
T9 construct: made in house
T9 sequence (Q9LFP6 1-367): T8 sequence (Q9LFP6 1-367)
Protocol: as §1

[10] = read-out: EC50 of peak current response
[11] = WT PIN8 proteoliposomes, Michaelis–Menten fit

T3 sequence (Q9LFP6 whole entry Y150A): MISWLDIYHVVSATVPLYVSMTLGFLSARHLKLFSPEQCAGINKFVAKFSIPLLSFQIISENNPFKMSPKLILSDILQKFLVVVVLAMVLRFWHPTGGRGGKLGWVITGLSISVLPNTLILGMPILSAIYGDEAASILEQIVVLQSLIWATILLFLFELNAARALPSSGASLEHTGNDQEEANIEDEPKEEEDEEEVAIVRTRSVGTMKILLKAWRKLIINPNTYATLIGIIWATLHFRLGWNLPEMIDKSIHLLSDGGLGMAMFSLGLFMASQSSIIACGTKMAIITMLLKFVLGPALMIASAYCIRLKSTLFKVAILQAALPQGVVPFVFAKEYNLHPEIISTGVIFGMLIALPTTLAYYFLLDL
T7 sequence (Q9LFP6 whole entry N117A): as the sequence (Q9LFP6 whole entry Y150A) above, with N117A, A150Y counted along it
T4 sequence (Q9LFP6 whole entry S146A): as the sequence (Q9LFP6 whole entry Y150A) above, with S146A, A150Y counted along it
T1 sequence (Q9LFP6 whole entry S55A/S146A): as the sequence (Q9LFP6 whole entry Y150A) above, with S55A, S146A, A150Y counted along it
T6 sequence (Q9LFP6 whole entry Y150F): as the sequence (Q9LFP6 whole entry Y150A) above, with A150F counted along it
T2 sequence (Q9LFP6 whole entry I51Y): as the sequence (Q9LFP6 whole entry Y150A) above, with I51Y, A150Y counted along it
T5 sequence (Q9LFP6 whole entry N223A): as the sequence (Q9LFP6 whole entry Y150A) above, with A150Y, N223A counted along it

Question: How did the Imax [1] turn out when `O=C(O)COc1ccc(Cl)cc1` [4-CPA, 4-chlorophenoxyacetic acid] was run?
Answer: 11 ± 0.9 nA

Question: What about the EC50 [1, 10] of the same molecule?
Answer: 81 ± 3 µM

Question: And the Imax [2]?
Answer: 3 ± 0.8 nA

Question: And the EC50 [2, 10]?
Answer: 1040 ± 252 µM

Question: And the Imax ([3]; PIN8 Y150A, Michaelis–Menten fit)?
Answer: 5 ± 0.4 nA

Question: And the EC50 ([3]; PIN8 Y150A, Michaelis–Menten fit, read-out: EC50 of peak current response)?
Answer: 2620 ± 263 µM

Question: What about the Peak current ([3]; 5 µM substrate) of the same molecule?
Answer: 0.004001 nA and 0.000964 nA and 0.005187 nA and 0.01098 nA

Question: And the Peak current ([3]; 20 µM substrate)?
Answer: 0.001883 nA and 0.005268 nA and 0.002512 nA and 0.004292 nA

Question: And the Peak current ([3]; 50 µM substrate)?
Answer: 0.02123 nA and 0.03866 nA and 0.02734 nA and 0.07514 nA

Question: What about the Peak current ([3]; 100 µM substrate) of the same molecule?
Answer: 0.1072 nA and 0.1421 nA and 0.1118 nA and 0.1489 nA

Question: What about the Peak current ([3]; 500 µM substrate) of the same molecule?
Answer: 0.7863 nA and 0.8129 nA and 0.8214 nA and 0.8974 nA

Question: What about the Peak current ([3]; 1000 µM substrate) of the same molecule?
Answer: 1.36 nA and 1.41 nA and 1.338 nA and 1.516 nA

Question: What about the Peak current ([3]; 2000 µM substrate) of the same molecule?
Answer: 2.1396 nA and 2.167 nA and 2.059 nA and 2.335 nA

Question: What about the Imax ([4]; PIN8 S146A, Michaelis–Menten fit) of the same molecule?
Answer: 8 ± 2 nA

Question: And the Peak current ([4]; 5 µM substrate)?
Answer: 0.16 nA and 0.306 nA and 0.183 nA and 0.211 nA

Question: What about the Peak current ([4]; 20 µM substrate) of the same molecule?
Answer: 0.62 nA and 0.288 nA and 0.616 nA

Question: And the Peak current ([4]; 50 µM substrate)?
Answer: 1.139 nA and 1.066 nA and 1.161 nA and 1.319 nA

Question: And the Peak current ([4]; 100 µM substrate)?
Answer: 1.866 nA and 1.352 nA and 1.859 nA and 2.228 nA

Question: What about the Peak current ([4]; 500 µM substrate) of the same molecule?
Answer: 4.245 nA and 2.76 nA and 4.229 nA and 5.107 nA

Question: What about the Peak current ([4]; 1000 µM substrate) of the same molecule?
Answer: 5.47 nA and 3.518 nA and 5.371 nA and 6.513 nA

Question: What about the Peak current ([4]; 2000 µM substrate) of the same molecule?
Answer: 6.809 nA and 4.912 nA and 6.602 nA and 8.134 nA

Question: What about the “fold-change difference to the respective EC50 of wildtype PIN8” value [5] of the same molecule?
Answer: completely abolishes binding

Question: What about the Imax [6] of the same molecule?
Answer: 5 ± 0.9 nA

Question: And the EC50 [6, 10]?
Answer: 710 ± 228 µM

Question: And the “current response / function of PIN8 N117A” value ([7]; N117A mutation)?
Answer: abolishes the current response

Question: What about the “Relative Peak Current of WT (%)” value ([7]; 100µM) of the same molecule?
Answer: 1.438% and 7.087% and 13.2919% and 50.142%

Question: And the “Relative Peak Current of WT (%)” value ([7]; 2mM)?
Answer: 17.5134% and 20.2019% and 18.4651% and 19.2453%

Question: What about the Peak current ([8]; 2 mM 4-CPA, absence of NPA) of the same molecule?
Answer: 6.735 nA and 9.149 nA

Question: What about the Peak current ([8]; 2 mM 4-CPA, presence of 20 µM NPA) of the same molecule?
Answer: 3.357 nA

Question: What about the EC50 [8, 11] of the same molecule?
Answer: 800 ± 200 µM

Question: And the “maximal current Imax” value [8, 11]?
Answer: 12 ± 2 nA

Question: What about the Peak current ([8]; WT, 5 µM substrate) of the same molecule?
Answer: 0.07132 nA and 0.09263 nA and 0.01805 nA

Question: What about the Peak current ([8]; WT, 20 µM substrate) of the same molecule?
Answer: 0.2459 nA and 0.3985 nA and 0.3482 nA

Question: What about the Peak current ([8]; WT, 50 µM substrate) of the same molecule?
Answer: 0.634 nA and 0.9337 nA and 0.8708 nA

Question: And the Peak current ([8]; WT, 100 µM substrate)?
Answer: 1.233 nA and 1.738 nA and 1.591 nA

Question: And the Peak current ([8]; WT, 500 µM substrate)?
Answer: 3.698 nA and 5.58 nA and 4.779 nA

Question: What about the Peak current ([8]; WT, 1000 µM substrate) of the same molecule?
Answer: 5.355 nA and 8.269 nA and 6.9634 nA

Question: And the Peak current ([8]; WT, 2000 µM substrate)?
Answer: 7.157 nA and 9.571 nA and 9.556 nA

Question: What about the “Rel. FWHM (% of LPR10)” value ([9]; LPR10) of the same molecule?
Answer: 1.033 % of LPR10 and 0.9836 % of LPR10 (2×)

Question: What about the “peak width of SSM-based current response as a function of lipid-to-protein ratio (LPR)” value ([9]; LPR10 versus LPR50) of the same molecule?
Answer: vary with lipid-to-protein ratio (LPR)

Question: And the “Rel. FWHM (% of LPR10)” value ([9]; LPR50)?
Answer: 1.475 % of LPR10 (2×) and 1.328 % of LPR10 and 1.377 % of LPR10

Source: publication PMC12095047, “Transport of phenoxyacetic acid herbicides by PIN-FORMED auxin transporters” (Nature Plants, 2025)
